Test results as given in the NIST ThermoML archive (doi:10.1021/je0496140).
± gives the expanded uncertainty stated by the source.

Test: xn = mol fraction of the nth substance listed
Conditions: 101.33 kPa, Liquid

CCCCCl [1-chlorobutane] + CC(C)(C)O
viscosity (298.15 K, x2 = 0.0966): 0.442 ± 0.006 mPa·s | viscosity (298.15 K, x2 = 0.2): 0.476 ± 0.007 mPa·s | viscosity (298.15 K, x2 = 0.2904): 0.517 ± 0.007 mPa·s | viscosity (298.15 K, x2 = 0.3901): 0.577 ± 0.008 mPa·s | viscosity (298.15 K, x2 = 0.4897): 0.662 ± 0.009 mPa·s | viscosity (298.15 K, x2 = 0.5956): 0.799 ± 0.01 mPa·s | viscosity (298.15 K, x2 = 0.6919): 1 ± 0.013 mPa·s | viscosity (298.15 K, x2 = 0.8008): 1.425 ± 0.017 mPa·s | viscosity (298.15 K, x2 = 0.8889): 2.112 ± 0.025 mPa·s | mass density (303.15 K, x2 = 0.0924): 864.09 ± 0.4 kg/m3 | viscosity (303.15 K, x2 = 0.0966): 0.419 ± 0.006 mPa·s | mass density (303.15 K, x2 = 0.1915): 853.49 ± 0.41 kg/m3 | viscosity (303.15 K, x2 = 0.2): 0.449 ± 0.007 mPa·s | mass density (303.15 K, x2 = 0.2758): 844.75 ± 0.43 kg/m3 | viscosity (303.15 K, x2 = 0.2904): 0.486 ± 0.007 mPa·s | mass density (303.15 K, x2 = 0.38): 834.23 ± 0.44 kg/m3 | viscosity (303.15 K, x2 = 0.3901): 0.537 ± 0.007 mPa·s | mass density (303.15 K, x2 = 0.481): 824.02 ± 0.45 kg/m3 | viscosity (303.15 K, x2 = 0.4897): 0.611 ± 0.008 mPa·s | mass density (303.15 K, x2 = 0.5729): 814.91 ± 0.46 kg/m3 | viscosity (303.15 K, x2 = 0.5956): 0.727 ± 0.01 mPa·s | mass density (303.15 K, x2 = 0.6749): 804.89 ± 0.48 kg/m3 | viscosity (303.15 K, x2 = 0.6919): 0.892 ± 0.011 mPa·s | mass density (303.15 K, x2 = 0.7778): 795.09 ± 0.49 kg/m3 | viscosity (303.15 K, x2 = 0.8008): 1.232 ± 0.015 mPa·s | viscosity (303.15 K, x2 = 0.8889): 1.752 ± 0.021 mPa·s | mass density (303.15 K, x2 = 0.8938): 784.46 ± 0.5 kg/m3 | viscosity (308.15 K, x2 = 0.0966): 0.397 ± 0.006 mPa·s | mass density (308.15 K, x2 = 0.0969): 857.96 ± 0.41 kg/m3 | mass density (308.15 K, x2 = 0.1912): 847.87 ± 0.42 kg/m3 | viscosity (308.15 K, x2 = 0.2): 0.423 ± 0.006 mPa·s | mass density (308.15 K, x2 = 0.2786): 838.9 ± 0.43 kg/m3 | viscosity (308.15 K, x2 = 0.2904): 0.456 ± 0.007 mPa·s | mass density (308.15 K, x2 = 0.3839): 828.23 ± 0.45 kg/m3 | viscosity (308.15 K, x2 = 0.3901): 0.502 ± 0.007 mPa·s | mass density (308.15 K, x2 = 0.4811): 818.5 ± 0.46 kg/m3 | viscosity (308.15 K, x2 = 0.4897): 0.565 ± 0.008 mPa·s | mass density (308.15 K, x2 = 0.5844): 808.35 ± 0.47 kg/m3 | viscosity (308.15 K, x2 = 0.5956): 0.664 ± 0.009 mPa·s | mass density (308.15 K, x2 = 0.6849): 798.55 ± 0.48 kg/m3 | viscosity (308.15 K, x2 = 0.6919): 0.801 ± 0.01 mPa·s | mass density (308.15 K, x2 = 0.7881): 788.78 ± 0.5 kg/m3 | viscosity (308.15 K, x2 = 0.8008): 1.081 ± 0.014 mPa·s | viscosity (308.15 K, x2 = 0.8889): 1.474 ± 0.018 mPa·s | mass density (308.15 K, x2 = 0.8957): 779.05 ± 0.51 kg/m3 | mass density (313.15 K, x2 = 0.093): 852.6 ± 0.42 kg/m3 | viscosity (313.15 K, x2 = 0.0966): 0.378 ± 0.006 mPa·s | mass density (313.15 K, x2 = 0.1869): 842.51 ± 0.43 kg/m3 | viscosity (313.15 K, x2 = 0.2): 0.4 ± 0.006 mPa·s | mass density (313.15 K, x2 = 0.2685): 834.13 ± 0.44 kg/m3 | viscosity (313.15 K, x2 = 0.2904): 0.428 ± 0.006 mPa·s | mass density (313.15 K, x2 = 0.3778): 823.11 ± 0.45 kg/m3 | viscosity (313.15 K, x2 = 0.3901): 0.468 ± 0.007 mPa·s | mass density (313.15 K, x2 = 0.4841): 812.56 ± 0.47 kg/m3 | viscosity (313.15 K, x2 = 0.4897): 0.525 ± 0.007 mPa·s | mass density (313.15 K, x2 = 0.5777): 803.43 ± 0.48 kg/m3 | viscosity (313.15 K, x2 = 0.5956): 0.608 ± 0.008 mPa·s | mass density (313.15 K, x2 = 0.6796): 793.58 ± 0.49 kg/m3 | viscosity (313.15 K, x2 = 0.6919): 0.724 ± 0.01 mPa·s | mass density (313.15 K, x2 = 0.7766): 784.47 ± 0.5 kg/m3 | viscosity (313.15 K, x2 = 0.8008): 0.947 ± 0.012 mPa·s | viscosity (313.15 K, x2 = 0.8889): 1.255 ± 0.015 mPa·s | mass density (313.15 K, x2 = 0.8972): 773.57 ± 0.52 kg/m3 | mass density (318.15 K, x2 = 0.0918): 847.04 ± 0.42 kg/m3 | viscosity (318.15 K, x2 = 0.0966): 0.359 ± 0.006 mPa·s | mass density (318.15 K, x2 = 0.1839): 837.08 ± 0.43 kg/m3 | viscosity (318.15 K, x2 = 0.2): 0.38 ± 0.006 mPa·s | mass density (318.15 K, x2 = 0.2674): 828.47 ± 0.45 kg/m3 | viscosity (318.15 K, x2 = 0.2904): 0.404 ± 0.006 mPa·s | mass density (318.15 K, x2 = 0.3797): 817.22 ± 0.46 kg/m3 | viscosity (318.15 K, x2 = 0.3901): 0.439 ± 0.006 mPa·s | mass density (318.15 K, x2 = 0.4809): 807.29 ± 0.47 kg/m3 | viscosity (318.15 K, x2 = 0.4897): 0.488 ± 0.007 mPa·s | mass density (318.15 K, x2 = 0.5799): 797.62 ± 0.49 kg/m3 | viscosity (318.15 K, x2 = 0.5956): 0.56 ± 0.008 mPa·s | mass density (318.15 K, x2 = 0.678): 788.38 ± 0.5 kg/m3 | viscosity (318.15 K, x2 = 0.6919): 0.658 ± 0.009 mPa·s | mass density (318.15 K, x2 = 0.7833): 778.42 ± 0.51 kg/m3 | viscosity (318.15 K, x2 = 0.8008): 0.841 ± 0.011 mPa·s | viscosity (318.15 K, x2 = 0.8889): 1.083 ± 0.014 mPa·s | mass density (318.15 K, x2 = 0.8905): 768.84 ± 0.52 kg/m3
